Values of other authors, collected in PMC6311893, “Computational prediction of plasma protein binding of cyclic peptides from small molecule experimental data using sparse modeling techniques” (BMC Bioinformatics, 2018).

Tested on: plasma protein
Conditions: fraction bound to plasma protein; small molecule dataset, sheet 1-SM (Set Dte = test, Dtr = training); ref Ingle et al.; cited from earlier work

Compound | PPB (fb)
N[C@@H]1CN(c2c(F)cc3c(=O)c(C(=O)O)cn([C@@H]4C[C@@H]4F)c3c2Cl)CC12CC2 [Sitafloxacin] | 0.49
CC1(C)S[C@@H]2[C@H](NC(=O)C(c3ccccc3)S(=O)(=O)O)C(=O)N2[C@H]1C(=O)O (some centres unmarked) [Sulbenicillin] | 0.5
C[C@H](Cn1cnc2c(N)ncnc21)OCP(=O)(O)O [Tenofovir] | 0.07
CN1C(C(=O)Nc2ccccn2)=C(O)c2sccc2S1(=O)=O [Tenoxicam] | 0.99
Cc1ccsc1C(=CCCN1CCC[C@@H](C(=O)O)C1)c1sccc1C [Tiagabine] | 0.96
NC[C@H]1O[C@H](O[C@H]2[C@H](O)[C@@H](O[C@H]3O[C@H](CO)[C@@H](O)[C@H](N)[C@H]3O)[C@H](N)C[C@@H]2N)[C@H](N)C[C@@H]1O [Tobramycin] | 0.05
C[C@@H](O)[C@H]1C(=O)N2C(C(=O)O)=C(S[C@H]3C[C@@H](C(=O)N4CC[C@H](NC(=O)CNC(=N)N)C4)N(C)C3)[C@H](C)[C@H]12 [Tomopenem] | 0.09
C[C@@H]([C@@H](O)c1ccc(O)cc1)N1CCC(O)(c2ccccc2)CC1 [Traxoprodil] | 0.37

Same assay, conditions: fraction bound to plasma protein; small molecule dataset, sheet 1-SM, Set Dtr; ref Ingle et al.; cited from earlier work

Compound | PPB (fb)
CCC(O)(C(=O)O)c1cc2n(c(=O)c1CO)Cc1cc3c(CN(C)C)c(O)ccc3nc1-2 (centres unmarked) [Topotecan Carboxylic Acid] | 0.07
COc1cc2c(cc1O)CCNC21CSC2c3c(OC(C)=O)c(C)c4c(c3C(COC1=O)N1C(O)C3Cc5cc(C)c(OC)c(O)c5C(C21)N3C)OCO4 (centres unmarked) [Trabectedin (ET-743__ Yondelis)] | 0.94
N[C@@H](Cc1c[nH]c2ccccc12)C(=O)O [Tryptophan] | 0.8

Same assay, conditions: fraction bound to plasma protein; small molecule dataset, sheet 1-SM; ref Ingle et al.; cited from earlier work

Compound | PPB (fb)
CO[C@H]1/C=C/O[C@@]2(C)Oc3c(C)c(O)c4c(O)c(c(/C=N/N5CCN(C)CC5)c(O)c4c3C2=O)NC(=O)/C(C)=C\C=C\[C@H](C)[C@H](O)[C@@H](C)[C@@H](O)[C@@H](C)[C@H](OC(C)=O)[C@@H]1C [Rifampin] | 0.77
CO[C@H]1/C=C/O[C@@]2(C)Oc3c(C)c(O)c4c(O)c(c(/C=N/N5CCN(C6CCCC6)CC5)c(O)c4c3C2=O)NC(=O)/C(C)=C\C=C\[C@H](C)[C@H](O)[C@@H](C)[C@@H](O)[C@@H](C)[C@H](OC(C)=O)[C@@H]1C [Rifapentine] | 0.93
CC(NCCc1ccc(O)cc1)C(O)c1ccc(O)cc1 (centres unmarked) [Ritodrine] | 0.33
CCCN1CCCC[C@H]1C(=O)Nc1c(C)cccc1C [Ropivacaine] | 0.94
CN(CCOc1ccc(CC2SC(=O)NC2=O)cc1)c1ccccn1 (centres unmarked) [Rosiglitazone] | 0.99
CC(C)(C)NC(=O)[C@@H]1C[C@@H]2CCCC[C@@H]2CN1C[C@@H](O)[C@H](Cc1ccccc1)NC(=O)[C@H](CC(N)=O)NC(=O)c1ccc2ccccc2n1 [Saquinavir] | 0.98
C[C@@H](O)[C@H]1C(=O)N2C(C(=O)O)=C(SCCOC(N)=O)S[C@H]12 [Sch34343] | 0.65
CCN(CC)CCNC(=O)c1ccc(NS(C)(=O)=O)cc1 [Sematilide] | 0.04
CN[C@@H]1[C@@H](O)[C@@H](O[C@@H]2[C@@H](O)[C@H](O[C@H]3OC(CN)=CC[C@H]3N)[C@@H](N)C[C@H]2N)OC[C@]1(C)O [Sisomicin] | 0.85
N[C@@H](CC(=O)N1CCn2c(nnc2C(F)(F)F)C1)Cc1cc(F)c(F)cc1F [Sitagliptin] | 0.38
CC(C)NCC(O)c1ccc(NS(C)(=O)=O)cc1 (centres unmarked) [Sotalol] | 0.28
C[C@@H]1CN(c2c(F)c(N)c3c(=O)c(C(=O)O)cn(C4CC4)c3c2F)C[C@H](C)N1 [Sparfloxacin] | 0.45
[H]/N=C(/N)N[C@H]1[C@H](O)[C@@H](O)[C@H](O[C@@H]2O[C@@H](C)[C@](O)(C=O)[C@H]2O[C@@H]2O[C@@H](CO)[C@H](O)[C@@H](O)[C@@H]2NC)[C@@H](N/C(N)=N\[H])[C@@H]1O [Streptomycin] | 0.37
Nc1ccc(S(=O)(=O)Nc2ncccn2)cc1 [Sulfadiazine] | 0.45
O=C1C(CC[S+]([O-])c2ccccc2)C(=O)N(c2ccccc2)N1c1ccccc1 (centres unmarked) [Sulfinpyrazone] | 0.98
Cc1noc(NS(=O)(=O)c2ccc(N)cc2)c1C [Sulfisoxazole] | 0.92
CSc1ccc(/C=C2/C(C)=C(CC(=O)O)c3cc(F)ccc32)cc1 [Sulindac sulfide] | 0.94
CNS(=O)(=O)Cc1ccc2[nH]cc(CCN(C)C)c2c1 [Sumatriptan] | 0.17
CC(C(=O)O)c1ccc(C(=O)c2cccs2)cc1 (centres unmarked) [Suprofen] | 0.99
C=CC[C@@H]1/C=C(\C)C[C@H](C)C[C@H](OC)[C@H]2O[C@@](O)(C(=O)C(=O)N3CCCC[C@H]3C(=O)O[C@H](/C(C)=C/[C@@H]3CC[C@@H](O)[C@H](OC)C3)[C@H](C)[C@@H](O)CC1=O)[C@H](C)C[C@@H]2OC [Tacrolimus] | 0.99
CCOc1ccccc1OCCN[C@H](C)Cc1ccc(OC)c(S(N)(=O)=O)c1 [Tamsulosin] | 0.97
CCCCCNC(=N)N/N=C/c1c[nH]c2ccc(OC)cc12 [Tegaserod] | 0.98
CC[C@H]1OC(=O)[C@H](C)C(=O)[C@H](C)[C@@H](O[C@@H]2O[C@H](C)C[C@H](N(C)C)[C@H]2O)[C@](C)(OC)C[C@@H](C)C(=O)[C@H](C)[C@H]2N(CCCCn3cnc(-c4cccnc4)c3)C(=O)O[C@]12C [Telithromycin] | 0.59
COc1cc2nc(N3CCN(C(=O)C4CCCO4)CC3)nc(N)c2cc1OC (centres unmarked) [Terazosin] | 0.91

Compound | PPB (fb)
CC(C)(C)NCC(O)c1cc(O)cc(O)c1 (centres unmarked) [Terbutaline] | 0.23
CC(CC(c1ccccc1)c1ccccc1)NC(C)(C)C (centres unmarked) [Terodiline] | 0.88
COc1ccccc1Oc1c(NS(=O)(=O)c2ccc(C(C)C)cn2)nc(-c2ccnc(-c3nnn[nH]3)c2)nc1OCCO [Tezosentan] | 0.99
O=C1CCC(N2C(=O)c3ccccc3C2=O)C(=O)N1 (centres unmarked) [Thalidomide] | 0.57
S=P(N1CC1)(N1CC1)N1CC1 [Thiotepa] | 0.1
CC1(C)S[C@@H]2[C@H](NC(=O)[C@H](C(=O)O)c3ccsc3)C(=O)N2[C@H]1C(=O)O [Ticarcillin] | 0.51
CC(C)(C)NC[C@H](O)COc1nsnc1N1CCOCC1 [Timolol] | 0.1
CCS(=O)(=O)CCn1c([N+](=O)[O-])cnc1C [Tinidazole] | 0.15
CCOC(=O)c1c(N)sc2c1CCN(Cc1ccccc1)C2 [Tinoridine] | 0.92
Nc1n[n+]([O-])c2ccccc2[n+]1[O-] [Tirapazamine] | 0.19
Clc1ccc2nsnc2c1NC1=NCCN1 [Tizanidine] | 0.3
Cc1cccc(C)c1NC(=O)C(C)N (centres unmarked) [Tocainide] | 0.13
Cc1ccccc1OCC(O)CNCCOc1ccc(C(N)=O)cc1 (centres unmarked) [Tolamolol] | 0.91
Cc1ccc(O)c([C@H](CCN(C(C)C)C(C)C)c2ccccc2)c1 [Tolterodine] | 0.96
CC[C@@]1(O)C(=O)OCc2c1cc1n(c2=O)Cc2cc3c(CN(C)C)c(O)ccc3nc2-1 [Topotecan] | 0.25
Cc1cccc(Nc2ccncc2S(=O)(=O)NC(=O)NC(C)C)c1 [Torasemide] | 0.99
CC1(C)O[C@@H]2C[C@H]3[C@@H]4CCC5=CC(=O)C=C[C@]5(C)[C@@]4(F)[C@@H](O)C[C@]3(C)[C@]2(C(=O)CO)O1 [Triamcinolone Acetonide] | 0.8
Nc1nc(N)c2nc(-c3ccccc3)c(N)nc2n1 [Triamterene] | 0.59
COc1cc(Cc2cnc(N)nc2N)cc(OC)c1OC [Trimethoprim] | 0.46
COc1cc(NCc2ccc3nc(N)nc(N)c3c2C)cc(OC)c1OC [Trimetrexate] | 0.96
CC(CN(C)C)CN1c2ccccc2CCc2ccccc21 (centres unmarked) [Trimipramine] | 0.95
N[C@@H]1[C@H]2CN(c3nc4c(cc3F)c(=O)c(C(=O)O)cn4-c3ccc(F)cc3F)C[C@@H]12 [Trovafloxacin] | 0.81
CCCC(CCC)C(=O)O [Valproic Acd] | 0.9
CCCCC(=O)N(Cc1ccc(-c2ccccc2-c2nnn[nH]2)cc1)[C@H](C(=O)O)C(C)C [Valsartan] | 0.95

Same assay, conditions: plasma; cited from earlier work

Compound | PPB (fb)
CCN(C)C(=O)Oc1cccc([C@H](C)N(C)C)c1 [Rivastigmine] | 0.4
C#CCN(C)[C@H](C)Cc1ccccc1 [Selegiline] | 0.9
Nc1c2c(nc3ccccc13)CCCC2 [Tacrine] | 0.65
C[C@]12CC[C@H]3[C@@H](CCC4=CC(=O)CC[C@@]43C)[C@@H]1CC[C@@H]2O [Testosterone] | 0.6
CCCCCc1cc(O)c2c(c1)OC(C)(C)C1CCC(C)=CC21 (centres unmarked) [Tetrahydrocannabinol__ D9-] | 0.96
CCCC(C)C1(CC)C(=O)NC(=S)NC1=O (centres unmarked) [Thiopental] | 0.84
Cc1cccc(N2CC(CO)OC2=O)c1 (centres unmarked) [Toloxatone] | 0.5
COc1cccc(C2(O)CCCCC2CN(C)C)c1 (centres unmarked) [Tramadol] | 0.16
Cc1nnc2n1-c1ccc(Cl)cc1C(c1ccccc1Cl)=NC2 [Triazolam] | 0.89
